# Columns and labels:
# [1] = test system: Normal human dermal fibroblasts; experiment: TNF-α induced apoptosis in primary human fibroblasts; format: cell-based; conditions: for OD 595 nm: 2 ng/ml TNF-α 24 hours, crystal violet
# From the text: (§1) Description of Table V: The results shown in Table V were obtained using the TNF-α assays performed as described in the protocols entitled “Method for TNF High Throughput Screen” and “Method for VCAM High Throughput Screen”, which are detailed below. These assays measure a cellular response to TNF-α stimulation, and the data published in the table are expressed as percentage inhibitions. Percentage inhibition is computed on a scale of 0 to 100% where 0 percent inhibition means the compound has no effect in the assay (the response is indistinguishable from TNF-α treatment alone), and 100% inhibition means that when the compound is present at the stated concentration, the response in the assay is the same as if TNF-α were not added. These two assays measure two different outcomes of TNF-α treatment, cell death and Vascular Cell Adhesion Molecule (VCAM) expression, and capture two of TNF-α's many biological effects. TNF-α induced apoptosis is a mechanism by which TNF-α production during immune/inflammatory responses can lead to direct cellular and tissue damage. TNF-α VCAM expression in endothelial cells is a response that allows leukocytes to leave the blood and enter a site of immune/inflammatory response. Both of these activities could lead to pathology in immune/inflammatory diseases. In the first column of the table, the percentage inhibition of the TNF-α driven apoptosis assay when the compounds are tested at 1 μM concentration is presented. The second column in the table lists the IC50 for the compound, a standard measure using a dilution series in the assay, and fitting a sigmoidal curve to the resulting dose-response curve. The IC50 is the concentration (derived analytically from the sigmoidal function) at which the compound would inhibit 50% of the response in the assay. The third and fourth column list the corresponding analysis for the TNF-α driven VCAM assay. In Table VI, data corresponding to the data in column 1 of Table V is shown, with human cells replacing the mouse cells used in the high throughput screen. […] As a consequence, the compounds will have use in treating more than one TNF-α mediated condition, and may be selected according to the manner in which the condition manifests. This corresponds to the use of these compounds in the treatment of human disease.
# Normal human dermal fibroblasts were seeded into 96-well plates at 3×10^4 cells/well. Cells were pretreated for 2 hours with […] Actinomycin D and either Compound 44 or DMSO as a vehicle control. Cells were then exposed to 2 ng/ml TNF-α for 24 hours and stained with crystal violet/ethanol. Crystal violet was solubilized with methanol and absorbance at 595 nm was read on a microtiter plate reader.
# C57/BL mouse = experiment: Sepsis model: murine LPS-d-galactosamine model; format: in vivo; conditions: 200 mg/kg intraperitoneally one hour before induction; prevention of mortality over three days
# Description: Sepsis was induced in the C57/BL mouse by the intravenous injection of 20 ng of lipopolysaccharide/animal plus 20 mgs d-galactosamine/animal. Inhibition was measured as the prevention of mortality over a three day period. Compounds were administered intraperitoneally in 10% cremophore/10% ethanol/80% normal saline one hour before induction.
# [2] = test system: Vascular Cell Adhesion Molecule (VCAM) expression in primary human umbilical vein endothelial cells; experiment: VCAM High Throughput Screen (TNF-α driven VCAM expression); format: cell-based; conditions: HUVEC, TNF 1.0 ng/ml
# From the text: as §1
# • 1. Plate 4×10^4 L929 cells in 100 μl of complete EMEM in Costar 96 well plates in PM. • 2. The next day, pretreat with compound, inhibitor and control vehicle for 2 hours. • 3. After 2 hours pretreatment, add 10 μl 5 ng/ml human TNF-α and actinomycin D (40 μg/ml final concentration). • 4. Incubate overnight. • 5. In AM, remove supernatant. • 6. Wash on a plate washer (0.9% NaCl). • 7. […] Shake plates on orbital shaker and read at 595 nm on plate reader. […]
compound,measurement,setting,value
N#Cc1cccc(C(C(=O)NCC(c2ccccc2)c2ccccc2)N(CCc2c[nH]cn2)C(=O)c2ccccc2C(=O)c2ccccc2)c1 (centres unmarked) [Compound 44],% Rescue,[1]; 2 μM compound,18.4%
same,OD 595 nm,[1]; 2 μM compound,0.109
same,% Rescue,[1]; 4 μM compound,57.1%
same,OD 595 nm,[1]; 4 μM compound,0.147
same,% Rescue,[1]; 8 μM compound,109.2%
same,OD 595 nm,[1]; 8 μM compound,0.198
same,Sepsis: Murine LPS-d-galactosamine model % inhibition,C57/BL mouse,33 +/− 1 @ 200%
same,IC50,[2],24.4 µM
